How the values were obtained:
[1] = test system: MV4-11; test: Cell viability assay (CellTiter-Glo), FLT3 cell-based assay; details: MV4-11 cells, 72 hr at 37° C., 0.1% DMSO
Method: Cell viability assay was performed based on the following brief procedures. Cells were plated at the density of 5K/well with volume of 180 μL in 96-well white plate and clear bottom plates. 20 μL of veh. or compound was added at proper concentration to the well. The final volume is 200 μL, with final conc. of DMSO=0.1%, 11 points, triplicates. The cells were then treated at 37° C. in the TC incubator for 72 hr. Equal volume (200 μL) of CellTiter-Glo reagent (Promega) was added to the well and protect from light at room temperature for 15 min. The chemiluminescence was measured with EnSight (Perkin Elmer). GraphPad Prism non-linear regression, Log[inhibitor] response with four parameters were used to calculate GI50.

[2] = target: T1, FLT3 (Homo sapiens, UniProt P36888); test: Caliper mobility shift kinase inhibition assay, recombinant FLT3; type: biochemical; details: recombinant FLT-3 0.1 nM, ATP 95 μM, incubation 3 hr, room temperature
T1 construct: purchased ThermoFisher PV3182
T1 sequence (P36888 27-993): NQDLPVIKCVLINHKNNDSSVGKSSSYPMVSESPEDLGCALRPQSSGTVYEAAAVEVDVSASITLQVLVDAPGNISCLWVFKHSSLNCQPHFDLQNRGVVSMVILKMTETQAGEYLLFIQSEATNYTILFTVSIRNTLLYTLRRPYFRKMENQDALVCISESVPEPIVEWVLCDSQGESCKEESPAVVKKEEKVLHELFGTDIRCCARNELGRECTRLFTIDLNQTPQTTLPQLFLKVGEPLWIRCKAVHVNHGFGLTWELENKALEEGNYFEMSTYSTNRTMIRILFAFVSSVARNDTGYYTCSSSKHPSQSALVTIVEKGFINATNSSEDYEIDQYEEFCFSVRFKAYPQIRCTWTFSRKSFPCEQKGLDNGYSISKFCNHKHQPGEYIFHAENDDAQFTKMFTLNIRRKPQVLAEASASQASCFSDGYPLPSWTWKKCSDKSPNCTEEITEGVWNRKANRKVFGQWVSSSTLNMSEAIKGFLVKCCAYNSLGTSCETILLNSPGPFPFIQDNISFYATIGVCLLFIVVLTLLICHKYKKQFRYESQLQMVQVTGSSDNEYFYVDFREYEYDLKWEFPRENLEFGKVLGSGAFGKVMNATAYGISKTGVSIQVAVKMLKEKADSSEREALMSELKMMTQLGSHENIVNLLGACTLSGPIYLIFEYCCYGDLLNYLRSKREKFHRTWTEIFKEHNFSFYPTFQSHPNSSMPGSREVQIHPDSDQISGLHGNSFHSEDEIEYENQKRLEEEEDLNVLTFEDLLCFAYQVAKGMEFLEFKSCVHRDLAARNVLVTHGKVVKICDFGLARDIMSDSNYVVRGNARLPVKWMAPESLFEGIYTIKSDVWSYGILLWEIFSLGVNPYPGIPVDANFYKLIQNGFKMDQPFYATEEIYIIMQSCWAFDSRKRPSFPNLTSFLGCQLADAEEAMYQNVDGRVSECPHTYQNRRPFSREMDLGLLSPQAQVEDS
Method: Compounds' inhibition of recombinant kinases (FLT3, KIT) was measured using Caliper mobility shift assay, which is based on the difference in capillary electrophoresis mobility of a fluorescent-tagged peptide as a result of a phosphorylation by the kinase under study. Reactions were started by the addition of various concentrations of a compound (originally in DMSO solution) to a kinase solution in assay buffer followed by addition of a mixture of ATP and a fluorescent-tagged peptide substrate in assay buffer. Concentrations of the enzyme, ATP and thepeptide were pre-optimized so that 15% substrate conversion to ensure initial velocity measurements. After incubation for 3 hours at room temperature, the kinase reaction was quenched by the addition of a concentrated EDTA solution before analysis on a LabChip EZ Reader II to yield percentage inhibition by comparing to the DMSO control. Table 2 below summarizes the assay conditions for the characterization of the kinase inhibition properties of the disclosed compounds.

[3] = target: T2, KIT (Homo sapiens, UniProt P10721); test: Caliper mobility shift kinase inhibition assay, recombinant KIT; type: biochemical; details: recombinant KIT 0.9 nM, ATP 400 μM, incubation 17 hr (Table 2)
T2 construct: purchased BPS 40250
T2 sequence (P10721 26-976): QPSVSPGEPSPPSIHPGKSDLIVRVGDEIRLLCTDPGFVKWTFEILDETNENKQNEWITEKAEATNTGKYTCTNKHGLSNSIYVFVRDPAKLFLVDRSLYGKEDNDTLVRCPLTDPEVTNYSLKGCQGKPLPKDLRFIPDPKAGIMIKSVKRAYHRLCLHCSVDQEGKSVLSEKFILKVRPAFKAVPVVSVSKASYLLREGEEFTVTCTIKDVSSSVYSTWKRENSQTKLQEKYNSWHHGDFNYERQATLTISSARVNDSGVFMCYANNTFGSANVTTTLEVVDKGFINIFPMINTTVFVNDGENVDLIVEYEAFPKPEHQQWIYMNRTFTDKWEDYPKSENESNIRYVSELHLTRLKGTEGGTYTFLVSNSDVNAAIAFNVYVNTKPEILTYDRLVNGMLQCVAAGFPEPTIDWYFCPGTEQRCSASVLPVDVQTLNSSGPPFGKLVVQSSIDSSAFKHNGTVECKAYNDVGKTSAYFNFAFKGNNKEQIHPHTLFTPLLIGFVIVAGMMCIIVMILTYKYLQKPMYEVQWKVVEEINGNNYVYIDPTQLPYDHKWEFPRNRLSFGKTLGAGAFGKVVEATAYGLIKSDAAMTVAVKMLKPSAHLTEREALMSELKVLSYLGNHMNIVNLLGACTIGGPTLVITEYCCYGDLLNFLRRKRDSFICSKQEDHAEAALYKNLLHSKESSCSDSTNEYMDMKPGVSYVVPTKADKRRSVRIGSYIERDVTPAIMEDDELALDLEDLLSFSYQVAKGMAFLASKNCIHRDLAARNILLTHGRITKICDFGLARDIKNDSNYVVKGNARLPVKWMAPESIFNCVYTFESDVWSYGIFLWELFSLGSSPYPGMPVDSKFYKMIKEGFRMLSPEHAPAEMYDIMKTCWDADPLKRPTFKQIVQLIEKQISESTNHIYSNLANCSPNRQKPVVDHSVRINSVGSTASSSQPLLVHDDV

For `C=CC(=O)N1CC[C@H](O)[C@H]1C(=O)NCCn1cnc2cnc(Nc3ncc(-c4ncccc4F)s3)cc21` [Example 24, (2S,3S)-N-[2-[6-[[5-(3-fluoro-2-pyridyl)thiazol-2-yl]amino]imidazo[4,5-c]pyridin-1-yl]ethyl]-3-hydroxy-1-prop-2-enoyl-pyrrolidine-2-carboxamide], which GI50 ([1]; Homo sapiens) is on record?
Its GI50 is 10 to 100 nM.

And the IC50 [2]?
Its IC50 is under 1 nM.

What about the IC50 [3] of the same compound?
The IC50 was under 1 nM.

Which results are given for `C=C(F)C(=O)N1CCC[C@H]1C(=O)NCCn1cnc2cnc(Nc3ncc(-c4ccc(F)cc4)s3)cc21` [Example 4]?
GI50 ([1]; Homo sapiens): < 10 nM; IC50 [2]: 1 to 10 nM; IC50 [3]: 1 to 10 nM

With `CN(C)C/C=C/C(=O)N1CC[C@H](O)[C@H]1C(=O)NCCn1cnc2cnc(Nc3ncc(-c4ncccc4F)s3)cc21` [Example 26, (2S,3S)-1-[(E)-4-(dimethylamino)but-2-enoyl]-N-[2-[6-[[5-(3-fluoro-2-pyridyl)thiazol-2-yl]amino]imidazo[4,5-c]pyridin-1-yl]ethyl]-3-hydroxy-pyrrolidine-2-carboxamide] as the compound, how does the GI50 ([1]; Homo sapiens) read?
The GI50 was 10 to 100 nM.

What about the IC50 [2] of the same compound?
The IC50 was under 1 nM.

What about the IC50 [3] of the same compound?
The IC50 was under 1 nM.

How did the GI50 ([1]; Homo sapiens) turn out when `C=CC(=O)N1CC[C@H](O)[C@H]1C(=O)NCCn1cnc2cnc(Nc3ncc(-c4ccc(F)cc4)s3)cc21` [Example 15, (2S,3S)-N-[2-[6-[[5-(4-fluorophenyl)thiazol-2-yl]amino]imidazo[4,5-c]72yridine-1-yl]ethyl]-3-hydroxy-1-prop-2-enoylpyrrolidine-2-carboxamide] was run?
Its GI50 is under 10 nM.

What about the IC50 [2] of the same compound?
The IC50 was under 1 nM.

And the IC50 [3]?
The IC50 was under 1 nM.

“(3S)-4-[(E)-4-(dimethylamino)but-2-enoyl]-N-[2-[6-[[5-(5-fluoropyrimidin-4-yl)thiazol-2-yl]amino]imidazo[4,5-c]pyridin-1-yl]ethyl]morpholine-3-carboxamide [Example 23]” was tested. Which GI50 [1] did it give?
Its GI50 is 10 to 100 nM.

And the IC50 [2]?
Its IC50 is under 1 nM.

What about the IC50 [3] of the same compound?
The IC50 was under 1 nM.

With `C=CC(=O)N1CCOC[C@H]1C(=O)NCCn1cnc2cnc(Nc3ncc(-c4ncncc4F)s3)cc21` [Example 22, (3S)-N-[2-[6-[[5-(5-fluoropyrimidin-4-yl)thiazol-2-yl]amino]imidazo[4,5-c]pyridin-1-yl]ethyl]-4-prop-2-enoyl-morpholine-3-carboxamide] as the compound, how does the GI50 ([1]; Homo sapiens) read?
The GI50 was under 10 nM.

And the IC50 [2]?
The IC50 was under 1 nM.

And the IC50 [3]?
The IC50 was under 1 nM.

Which results are given for `C/C=C\C(=O)N1CCC[C@H]1C(=O)NCCn1cnc2cnc(Nc3ncc(-c4ccc(F)cc4)s3)cc21` [Example 2, (2S)-1-[(Z)-but-2-enoyl]-N-[2-[6-[[5-(4-fluorophenyl)thiazol-2-yl]amino]imidazo[4,5-c]pyridin-1-yl]ethyl]pyrrolidine-2-carboxamide]?
GI50 ([1]; Homo sapiens): < 10 nM; IC50 [2]: 1 to 10 nM; IC50 [3]: 1 to 10 nM
